# Experiment: Bulk density
# Format: physicochemical
# Conditions: docetaxel; room temperature
# Experimental: The mass of the drug was measured to a nearest 0.1 mg, the volume was determined to the nearest 0.1 mL and the density calculated.
smiles,measurement,value
"CC(=O)O[C@@]12CO[C@@H]1C[C@H](O)[C@@]1(C)C(=O)[C@H](O)C3=C(C)[C@@H](OC(=O)[C@H](O)[C@@H](NC(=O)OC(C)(C)C)c4ccccc4)C[C@@](O)([C@@H](OC(=O)c4ccccc4)[C@H]21)C3(C)C [Docetaxel Raw Material, docetaxel]",Bulk Density,0.24 g/cm3

# Reference: US11291646B2, “Nozzle assembly and methods for use” (CRITITECH, INC., priority 2015, dated 2022)
